In patent publication US20260355196A1, “INHIBITORS AND DEGRADERS OF PIP4K PROTEIN” (Larkspur Biosciences, Inc., priority 2023, published 2026):

Target: T1, PIP4K2C (Homo sapiens, UniProt Q8TBX8)
T1 sequence (Q8TBX8 1-421): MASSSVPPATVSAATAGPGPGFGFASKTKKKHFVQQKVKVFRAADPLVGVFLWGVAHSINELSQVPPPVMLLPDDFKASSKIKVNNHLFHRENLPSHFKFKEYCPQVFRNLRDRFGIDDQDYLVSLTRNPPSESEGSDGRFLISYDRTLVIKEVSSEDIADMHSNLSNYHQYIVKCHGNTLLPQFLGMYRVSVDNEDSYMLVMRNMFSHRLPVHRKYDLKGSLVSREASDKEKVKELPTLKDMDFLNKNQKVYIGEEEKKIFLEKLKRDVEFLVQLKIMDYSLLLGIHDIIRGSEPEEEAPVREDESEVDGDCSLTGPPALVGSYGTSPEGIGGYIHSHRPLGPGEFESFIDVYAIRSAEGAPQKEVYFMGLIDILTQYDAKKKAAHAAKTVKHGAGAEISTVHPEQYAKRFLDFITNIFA
Experiment: Enzyme Binding Assay (KINOMEscan): active site-directed competition binding to an immobilized ligand
Set-up: purchased Eurofins DiscoverX, San Diego, CA 87-0007-1094
Details: 11-point dose response, duplicate, top concentration 5 micromolar; read-out: Pip4k2c Kd: IC50
Experimental: Example B-1: Enzyme Binding Assays (KINOMEscan)
PIP4K2C binding constants disclosed herein were determined using the proprietary Human PIP4K2C binding assay (Catalog number 87-0007-1094, Eurofins DiscoverX, San Diego, CA). This assay measures active site-directed competition binding to an immobilized ligand (see https://doi.org/10.1038/nbt1068, herein incorporated by reference in its entirety). Experiments were conducted using an 11-point dose response curve, in duplicate, with a top starting concentration of 5 micromolar; the Levenberg-Marquardt algorithm was used to fit a Hill equation to dose-response data to calculate IC50 values (see Table 5).

Row | SMILES | IC50 [µM]
1 | NC(=O)[C@@H]1CCC[C@H](Nc2ncc(F)c(C3CCCN(c4ccc(F)cc4)C3)n2)C1 (relative stereo) [Compound 91, cis-3-((5-fluoro-4-(1-(4-fluorophenyl)piperidin-3-yl)pyrimidin-2-yl)amino)cyclohexane-1-carboxamide] | < 0.5
2 | NC(=O)[C@@H]1CCC[C@H](Nc2ncc(Cl)c(-c3cccc(-n4ccccc4=O)c3)n2)C1 (relative stereo) [Compound 136, cis-3-((5-chloro-4-(3-(2-oxopyridin-1 (2H)-yl)phenyl)pyrimidin-2-yl)amino)cyclohexane-1-carboxamide] | < 0.5
3 | NC(=O)[C@H]1CCC[C@@H](Nc2ncc(F)c(-c3cccc(C4COC4)c3)n2)C1 (relative stereo) [Compound 170, cis-3-((5-fluoro-4-(3-(oxetan-3-yl)phenyl)pyrimidin-2-yl)amino)cyclohexane-1-carboxamide] | < 0.5
4 | CC(C)(O)c1cc(-c2nc(N[C@@H]3CCC[C@H](C(N)=O)C3)ncc2F)ccn1 (relative stereo) [Compound 177, cis-3-((5-fluoro-4-(2-(2-hydroxypropan-2-yl)pyridin-4-yl)pyrimidin-2-yl)amino)cyclohexane-1-carboxamide] | < 0.5
5 | NC(=O)[C@H]1CCC[C@@H](Nc2ncc(F)c(-c3cccc(N4CCCOC4=O)c3)n2)C1 (relative stereo) [Compound 227, cis-3-((5-fluoro-4-(3-(2-oxo-1,3-oxazinan-3-yl)phenyl)pyrimidin-2-yl)amino)cyclohexane-1-carboxamide] | < 0.5
6 | NC(=O)[C@@H]1CCC[C@H](Nc2ncc(F)c(-c3cccc(N4CCOCC4=O)c3)n2)C1 (relative stereo) [Compound 269, cis-3-((5-fluoro-4-(3-(3-oxomorpholino)phenyl)pyrimidin-2-yl)amino)cyclohexane-1-carboxamide] | < 0.5
7 | NC(=O)[C@@H]1CCC[C@H](Nc2ncc(F)c(-c3ccnc(N4CCOCC4=O)c3)n2)C1 (relative stereo) [Compound 629, cis-3-((5-fluoro-4-(2-(3-oxomorpholino)pyridin-4-yl)pyrimidin-2-yl)amino)cyclohexane-1-carboxamide] | < 0.5
8 | O=C(C1CCNCC1)N1CCC(Nc2ncc(Cl)c(-c3cccc(-c4ccccc4)c3)n2)CC1 [Compound 2, (4-((4-([1,1′-biphenyl]-3-yl)-5-chloropyrimidin-2-yl)amino)piperidin-1-yl)(piperidin-4-yl)methanone] | < 0.5
9 | CC(=O)N1CCC(C(=O)N2CCC(Nc3ncc(Cl)c(-c4cccc(-c5ccccc5)c4)n3)CC2)CC1 [Compound 4, 1-(4-(4-((4-([1,1′-biphenyl]-3-yl)-5-chloropyrimidin-2-yl)amino)piperidine-1-carbonyl)piperidin-1-yl)ethan-1-one] | < 0.5
10 | CC(=O)N1CCC(CC(=O)N2CCC(Nc3ncc(Cl)c(-c4cccc(-c5ccccc5)c4)n3)CC2)CC1 [Compound 6, 1-(4-((4-([1,1′-biphenyl]-3-yl)-5-chloropyrimidin-2-yl)amino)piperidin-1-yl)-2-(1-acetylpiperidin-4-yl)ethan-1-one] | < 0.5

Continued, values first:

Row | IC50 [µM] | SMILES
11 | 1 to 5 | NC(=O)[C@H]1CCC[C@@H](Nc2ncc(F)c(-c3ccn(-c4ccc(F)cc4)n3)n2)C1 (relative stereo) [Compound 42, cis-3-((5-fluoro-4-(1-(4-fluorophenyl)-1H-pyrazol-3-yl)pyrimidin-2-yl)amino)cyclohexane-1-carboxamide]
12 | 0.5 to 1 | NC(=O)[C@H]1CCC[C@@H](Nc2ncc(F)c(-c3cnn(-c4ccc(F)cc4)c3)n2)C1 (relative stereo) [Compound 43, cis-3-((5-fluoro-4-(1-(4-fluorophenyl)-1H-pyrazol-4-yl)pyrimidin-2-yl)amino)cyclohexane-1-carboxamide]
13 | < 0.5 | NC(=O)[C@@H]1CCC[C@H](Nc2ncc(F)c(-c3cccc(-c4cccc(=O)[nH]4)c3)n2)C1 (relative stereo) [Compound 112, cis-3-((5-fluoro-4-(3-(6-oxo-1,6-dihydropyridin-2-yl)phenyl)pyrimidin-2-yl)amino)cyclohexane-1-carboxamide]
14 | 1 to 5 | NC(=O)[C@@H]1CCC[C@H](Nc2ncc(F)c(-c3ccn(C4CCCCC4)n3)n2)C1 (relative stereo) [Compound 113, cis-3-((4-(1-cyclohexyl-1H-pyrazol-3-yl)-5-fluoropyrimidin-2-yl)amino)cyclohexane-1-carboxamide]
15 | < 0.5 | NC(=O)[C@H]1CCC[C@@H](Nc2ncc(Cl)c(C3CCN(C(=O)c4ccc(F)cc4)C3)n2)C1 (relative stereo) [Compound 135, cis-3-((5-chloro-4-(1-(4-fluorobenzoyl)pyrrolidin-3-yl)pyrimidin-2-yl)amino)cyclohexane-1-carboxamide]
16 | < 0.5 | NC(=O)[C@@H]1CCC[C@H](Nc2ncc(F)c(-c3cccc(-c4ccc[nH]c4=O)c3)n2)C1 (relative stereo) [Compound 150, cis-3-((5-fluoro-4-(3-(2-oxo-1,2-dihydropyridin-3-yl)phenyl)pyrimidin-2-yl)amino)cyclohexane-1-carboxamide]
17 | < 0.5 | NC(=O)[C@H]1CCC[C@@H](Nc2ncc(F)c(-c3cccc(C4(O)COC4)c3)n2)C1 (relative stereo) [Compound 173, cis-3-((5-fluoro-4-(3-(3-hydroxyoxetan-3-yl)phenyl)pyrimidin-2-yl)amino)cyclohexane-1-carboxamide]
18 | < 0.5 | CC(=O)N1CCCC(c2cccc(-c3nc(N[C@@H]4CCC[C@H](C(N)=O)C4)ncc3F)c2)C1 (relative stereo) [Compound 178, cis-3-((4-(3-(1-acetylpiperidin-3-yl)phenyl)-5-fluoropyrimidin-2-yl)amino)cyclohexane-1-carboxamide]
19 | < 0.5 | NC(=O)[C@H]1CCC[C@@H](Nc2ncc(F)c(-c3cccc(-c4cc[nH]c(=O)c4)c3)n2)C1 (relative stereo) [Compound 200, cis-3-((5-fluoro-4-(3-(2-oxo-1,2-dihydropyridin-4-yl)phenyl)pyrimidin-2-yl)amino)cyclohexane-1-carboxamide]
20 | < 0.5 | NC(=O)[C@@H]1CCC[C@H](Nc2ncc(F)c(-c3cccc(N4CCOCC4=O)n3)n2)C1 (relative stereo) [Compound 627, cis-3-((5-fluoro-4-(6-(3-oxomorpholino)pyridin-2-yl)pyrimidin-2-yl)amino)cyclohexane-1-carboxamide]
21 | 0.5 to 1 | NC(=O)C1CCC(Nc2ncc(Cl)c(-c3cccc(-c4ccccc4)c3)n2)CC1 (centres unmarked) [Compound 1, 4-((4-([1,1′-biphenyl]-3-yl)-5-chloropyrimidin-2-yl)amino)cyclohexane-1-carboxamide]
22 | < 0.5 | CN1CCC(C(=O)N2CCC(Nc3ncc(Cl)c(-c4cccc(-c5ccccc5)c4)n3)CC2)CC1 [Compound 3, (4-((4-([1,1′-biphenyl]-3-yl)-5-chloropyrimidin-2-yl)amino)piperidin-1-yl)(1-methylpiperidin-4-yl)methanone]
23 | < 0.5 | O=C(CC1CCNCC1)N1CCC(Nc2ncc(Cl)c(-c3cccc(-c4ccccc4)c3)n2)CC1 [Compound 5, 1-(4-((4-([1,1′-biphenyl]-3-yl)-5-chloropyrimidin-2-yl)amino)piperidin-1-yl)-2-(piperidin-4-yl)ethan-1-one]
